These are literature values, as cited in patent US20170022153A1, “FUMARATE COMPOUNDS, PHARMACEUTICAL COMPOSITIONS THEREOF, AND METHODS OF USE” (priority 2015, published 2017).

SMILES strings stand for the structures.

In the case of `COC(=O)/C=C/C(=O)OC` [DMF, dimethylfumarate], the aqueous solubility result is on record as “poor”.
